Reference: paper PMC4474691, “Leukemia-Associated Mutations in Nucleophosmin Alter Recognition by CRM1: Molecular Basis of Aberrant Transport” (PLoS ONE, 2015)

Tests used:
CRM1^HA [1] = molecular target: T1, CRM1^HA (Mus musculus, UniProt Q6P5F9, L431A/V430A/V432A); assay: Fluorescence anisotropy binding assay, CRM1^HA; conditions: 0–60 μM CRM1^HA, 25°C
T1 construct: His-ZZ (cleaved yes); made in house; host or cells: Escherichia coli BL21-CodonPlus (DE3)
Experimental: Fluorescence anisotropy binding assays
To estimate CRM1 binding affinities for NES motifs we monitored binding with a fluorescence-polarization assay based on previously described approaches. The increase in fluorescence anisotropy of TFP/YFP when the TFP/YFP-NES construct (50 nM) binds to 0–60 μM CRM1 (either CRM^HA or wild type) was recorded at 25°C with a 8100 SLM-Aminco spectrofluorometer in buffer 20 mM Tris/HCl, pH 7.4, 50 mM NaCl, 5 mM DTT, 2 mM MgCl2. Excitation and emission wavelengths were 463, 500 nm for TFP and 463, 533 nm for YFP, and slits width 4 and 8 nm, respectively.
Fig 4 Binding of CRM1 to TFP-NES constructs. (A) Scheme of the engineered TFP constructs, showing the sequence of the NES motifs. Φ residues are highlighted in red. (B) Titration of CRM1 onto the different TFP constructs (50 nM), at 25°C, in buffer 20 mM Tris/HCl, pH 7.4, 50 mM NaCl, 5 mM DTT, 2 mM MgCl2: Left panel: Binding of CRM1^HA (solid symbols) or wild type CRM1 (empty symbols) to TFP-PKI(NES). Right panel: Binding of CRM1^HA to TFP-mutE(NES) (triangles) and TFP-mutA(NES) (squares). Fraction bound was calculated from the relative increase in fluorescence anisotropy of TFP (λexc 463 nm, λem 500 nm). Error bars correspond to at least three measurements per CRM1 concentration.
We next used the TFP-(NES) constructs to monitor CRM1^HA binding to each motif, using the change in fluorescence anisotropy upon complex formation as a readout (Fig 4B), as previously described. […] The different nature of the fluorescent tag, and/or the linker between the fluorescent protein and the NES (2 residues longer in the YFP-PKI construct) could explain the discrepancy. […] To isolate the CRM1 / NES interaction under study from the influence of the tag protein, we have also conducted binding assays with peptides corresponding to the NES motifs (see below).

CRM1^HA [2] = molecular target: T1, CRM1^HA; assay: Ni-NTA chromatography of TFP-NES / CRM1^HA complex formation; type: binding; conditions: 2.5 mg His-tagged TFP construct on 1 mL Histrap FF, 1 mL CRM1^HA 18 μM; 50 mM Tris/HCl pH 8.0, 500 mM NaCl; SDS-PAGE
Description: Although the relative potency of the NESs acquired by the different NPM mutants has been compared using an in vivo export assay, their CRM1-binding affinities have not yet been determined. We cloned the NESs of mutant A and E as C-terminal fusions to a teal fluorescent protein (TFP) (Fig 4A). As a reference, we generated an equivalent construct with the well-characterized NES of protein kinase inhibitor (PKI). We first tested the binding of CRM1^HA to the TFP-NES constructs using Ni-NTA chromatography. His-tagged TFP constructs were bound to the Ni-NTA column, and an excess of untagged CRM1^HA was then injected (S4 Fig).
Supplementary file pone.0130610.s004.tif: S4 Fig TFP-NES / CRM1^HA complex formation shown by Ni-NTA chromatography. 2.5 mg of the His-tagged TFP construct were loaded on a 1 mL Histrap FF (GE Healthcare) in buffer 50 mM Tris/HCl, pH 8.0, 500 mM NaCl, 1 mM TCEP, 2 mM MgCl2, 5% glycerol, containing 15 mM imidazole. After washing with the same buffer, 1 mL of CRM1^HA at 18 μM was injected at 0.1 mL/min flow rate. Unbound CRM1^HA was collected, and then bound proteins were eluted with 2 M imidazole. SDS-PAGE of elution fractions: Unbound (free) CRM1^HA and the fraction eluted with imidazole, containing both the His-tagged TFP construct along with bound CRM1^HA. (TIF) Click here for additional data file.

CRM1^HA [3] = molecular target: T1, CRM1^HA; assay: Isothermal titration calorimetry, CRM1^HA / NES; type: binding; conditions: ITC, 20°C; for Kd: read-out: KD
Experimental: Isothermal titration calorimetry (ITC)
ITC measurements were carried out using a VIP-ITC MicroCalorimeter (MicroCal, Inc., Northampton, MA). TFP and YFP constructs, as well as CRM1^HA, were dialyzed in a buffer containing 20 mM HEPES, pH 7.4, 50 mM NaCl, 1 mM TCEP, 1 mM MgCl2, and degassed prior to the experiment. Untagged peptides (AS: QDLCLAVEEVSLRK, AL: EAIQDLCLAVEEVSLRK, ES: QDLWQSLAQVSLRK and EL: EAIQDLWQSLAQVSLRK), N-acetylated and 95% pure, were purchased from Proteogenix (Schiltigheim, France) and resuspended in the ITC buffer. Measurements were performed at 20°C. TFP-NES, YFP-NES or NES peptides at 35–180 μM were titrated onto CRM1^HA at 2–14 μM. Injections of 6 μL were performed at 320 seconds interval (the first injection always was of 1 μL and is not considered in data analysis). To determine the thermodynamic parameters of NPM / importin interaction, importin α, importin Δα or importin α/β at 45–60 μM were titrated onto NPM (1–1.2 μM pentamer) in 50 mM Tris/HCl, pH 7.5, 100 mM NaCl, 2 mM TCEP, and 10% glycerol. […] “Reverse” titrations, where 20–30 μM NPM was titrated onto 7–10 μM of the different importins were also performed and yielded similar results.
The reaction heat of each injection is related to the calorimetric enthalpy of binding, ΔH^0. The binding isotherms, ΔH^0 vs. molar ratio, were analyzed with an independent binding sites model using MicroCal Origin software. The fit of the binding curve yields the binding constant KA (KD = 1/KA) and the enthalpy ΔH^0 of the binding reaction. The Gibbs free energy of binding ΔG^0 and the entropy ΔS^0 are determined from the basic thermodynamic expressions: ΔG^0 = -RTlnKA = ΔH^0−TΔS^0, where R and T are the gas constant and the absolute temperature, respectively.
Fig 5 Analysis of CRM1^HA/TFP-NES interaction by ITC. Isothermal titration of CRM1^HA with TFP-mutE(NES). […] The titration of negative control TFP-Cter (180 μM) onto CRM1^HA (14 μM) (circles) is also shown for comparison.

HeLa cells = assay: In vivo nuclear export assay, Rev(1.4)-GFP; type: cell-based; conditions: Rev(1.4)-NPMcNES-GFP in HeLa cells, actinomycin D, >200 cells per sample
Description: The clone of Myc3 tagged human NPM in pCDNA3.1 for eukaryotic expression was kindly provided by Dr. Yanping Zhang (University of Texas). From this clone, we used PCR to generate the AML-associated mutants A and E [27], by incorporating the mutations in the 3´oligonucleotide. The three NPM variants (wild type, A and E) were subcloned as YFP-NPM fusions into pEYFP-C1. The plasmid encoding YFP-CRM1 has been previously described, and pEYFP-C1 was used as its corresponding negative control. As a positive control in cell localization assays, a previously described plasmid encoding Flag-tagged Survivin fused to a heterologous NLS (“SurvNLS”) was used. To test the export activity of a novel putative NES in the C-terminal domain of wild type NPM, a DNA fragment encoding residues 264–282 was cloned into the plasmid Rev (1.4)-GFP (a gift of Dr. Beric Henderson, University of Sydney), as previously described.
The export activity of a novel putative NES in the C-terminal domain of NPM was tested using an established in vivo nuclear export assay in HeLa cells (see Supporting Information for further experimental details).
Supplementary file pone.0130610.s001.tif: S1 Fig A novel candidate NES (cNES) in NPM is not active in a nuclear export assay. […] Fluorescence microscopy images in panel B show the localization of the different proteins. […] More than 200 cells were counted per sample. […]

CRM1^HA [4] = molecular target: T1, CRM1^HA; assay: Size exclusion chromatography of NPM / CRM1^HA complex formation; type: binding
Experimental: Chromatography-based binding experiments
[…] Then 100 μL were loaded onto a Superdex 200 10/30 column (GE Healthcare), equilibrated in buffer 20 mM Tris/HCl, pH 7.4, 100 mM NaCl, 5 mM DTT, 2 mM MgCl2. Runs were performed at 15°C and a flow rate of 0.2 mL / min. The eluted fractions were analyzed by SDS-PAGE. TFP-NES/CRM1^HA complex formation was also tested by Ni-NTA chromatography (see Supporting Information).
Fig 3 Native-like properties of CRM1^HA “high affinity” mutant and formation of complexes between this CRM1 variant and AML-related NPM mutants. (A) Circular dichroism thermal denaturation profiles of wild type CRM1 and CRM1^HA, followed by ellipticity at 222 nm as a function of temperature. […] When evaluating the relative amounts of the complex and free NPM, one should take into account that absorbance at 280 nm is lower for the mutants (especially NPMmutA) than for wild type NPM, since wild type NPM contains two Trp residues per subunit, NPMmutE one, and NPMmutA none. […] They are detected in the fractions containing the complex probably due to formation of mixed oligomers with the full length species and/or incomplete resolution from free NPM. […]

T1 sequence (Q6P5F9 1-1062 V430A/L431A/V432A limits assumed): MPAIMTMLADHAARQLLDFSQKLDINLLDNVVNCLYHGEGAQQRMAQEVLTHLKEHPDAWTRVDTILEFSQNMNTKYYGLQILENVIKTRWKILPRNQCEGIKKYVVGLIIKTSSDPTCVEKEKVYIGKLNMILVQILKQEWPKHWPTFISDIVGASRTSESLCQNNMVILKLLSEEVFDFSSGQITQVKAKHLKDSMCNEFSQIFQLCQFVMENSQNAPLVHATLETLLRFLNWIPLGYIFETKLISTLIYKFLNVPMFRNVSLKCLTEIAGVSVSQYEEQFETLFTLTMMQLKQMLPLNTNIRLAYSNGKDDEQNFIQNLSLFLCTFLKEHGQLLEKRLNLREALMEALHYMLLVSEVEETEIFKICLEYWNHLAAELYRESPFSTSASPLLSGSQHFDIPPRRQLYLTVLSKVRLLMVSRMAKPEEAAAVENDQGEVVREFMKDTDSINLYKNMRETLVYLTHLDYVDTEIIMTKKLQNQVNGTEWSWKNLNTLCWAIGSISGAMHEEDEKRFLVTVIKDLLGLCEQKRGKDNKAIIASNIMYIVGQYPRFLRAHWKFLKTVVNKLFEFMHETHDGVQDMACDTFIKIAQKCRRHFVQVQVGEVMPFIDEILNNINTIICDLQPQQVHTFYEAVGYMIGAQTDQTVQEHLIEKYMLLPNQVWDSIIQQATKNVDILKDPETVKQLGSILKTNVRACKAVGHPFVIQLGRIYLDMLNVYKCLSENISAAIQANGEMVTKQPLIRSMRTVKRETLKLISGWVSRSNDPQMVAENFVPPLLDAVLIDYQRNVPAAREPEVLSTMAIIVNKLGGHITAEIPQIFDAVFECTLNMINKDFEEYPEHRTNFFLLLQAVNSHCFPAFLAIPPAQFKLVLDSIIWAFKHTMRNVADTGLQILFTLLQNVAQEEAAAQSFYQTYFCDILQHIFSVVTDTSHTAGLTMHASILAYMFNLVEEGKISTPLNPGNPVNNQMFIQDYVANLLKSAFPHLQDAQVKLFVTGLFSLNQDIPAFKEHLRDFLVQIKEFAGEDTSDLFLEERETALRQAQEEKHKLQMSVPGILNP

In the case of “DLCLAVEEVSLRK [TFP-mutA(NES), NES of NPM mutant A as C-terminal fusion to teal fluorescent protein]”, the Kd (CRM1^HA [1]; TFP-NES 50 nM, pH 7.4, rounded, read-out: apparent KD) is reported as 5 µM, the Kd (CRM1^HA [1]; TFP/YFP-NES construct 50 nM, 20 mM Tris/HCl pH 7.4, 50 mM NaCl, 5 mM DTT, 2 mM MgCl2, at least three measurements per CRM1 concentration, read-out: apparent KD (C50)) is reported as 4.97 ± 1.18 µM and the “CRM1^HA binding in Ni-NTA chromatography” value (CRM1^HA [2]) is reported as “not even detected in these conditions”. For the same substance, the Kd (CRM1^HA [3]; NES ligand (35–180 μM) titrated onto CRM1^HA (2–14 μM), 20 mM HEPES pH 7.4, 50 mM NaCl, 1 mM TCEP, 1 mM MgCl2, independent binding sites model) was 2.38 ± 0.698 µM, the ΔH (CRM1^HA [3]; NES ligand titrated onto CRM1^HA, 20 mM HEPES pH 7.4) was -14.5 ± 6.2 kcal/mol and the “-TΔS” value (CRM1^HA [3]; NES ligand titrated onto CRM1^HA, 20 mM HEPES pH 7.4, from ΔG = ΔH − TΔS) was 6.9 ± 6.1 kcal/mol. For the same substance, the “n (binding stoichiometry)” value (CRM1^HA [3]; NES ligand titrated onto CRM1^HA, 20 mM HEPES pH 7.4, low n of peptides might result from limited solubility) was 0.54 ± 0.27, the ΔG (CRM1^HA [3]; NES ligand titrated onto CRM1^HA, 20 mM HEPES pH 7.4, ΔG = -RTlnKA) was -7.6 ± 0.1 kcal/mol and the Kd (CRM1^HA [3]; TFP-NES titrated onto CRM1^HA, 20 mM HEPES pH 7.4, rounded) was 2.4 µM.
“VEAKFINYVKNCFRMTDQE [NPM cNES, candidate NES in C-terminal domain of NPM, tested as Rev(1.4)-GFP fusion]” was tested, and the nuclear export activity (HeLa cells) was “not functional as a nuclear export signal” and the nuclear export activity (HeLa cells; listed as 268-FINYVKNCFRM-278) was “inactive”.
For “wild type NPM: nucleophosmin, pentameric nucleolar protein”, the “complex formation with CRM1^HA” value (CRM1^HA [4]; SEC Superdex 200, 20 μM (pentamer) NPM + 40 μM CRM1^HA, 30 min room temperature, run at 15°C, 20 mM Tris/HCl pH 7.4, 100 mM NaCl, mutant preparations partly C-terminally degraded) was “did not result in any complex stable enough as to be detected by SEC” and the “complex formation with CRM1^HA” value (CRM1^HA [4]; SEC, 40 μM NPM + 140 μM CRM1^HA (data not shown)) was “failed to produce any detectable complex”.
